# ChEMBL document CHEMBL1143982, “A comparative molecular field and comparative molecular similarity indices analyses (CoMFA and CoMSIA) of N-phenyl-N'-(2-chloroethyl)ureas targeting the colchicine-binding site as anticancer agents” (2008)
# System: MDA-MB-231
# Assay: Antiproliferative activity against human MDA-MB-231 cells
# Assay type: functional
row,Structure (SMILES),GI50 [µM]
1,CCCCCCCCc1ccc(NC(=O)NCCCl)cc1,48
2,O=C(NCCCl)Nc1cccc2ccccc12,220
3,CCc1ccccc1NC(=O)NCCCl,400
4,CCc1cccc(NC(=O)NCCCl)c1,16
5,Cc1cccc(NC(=O)NCCCl)c1,88
6,Cc1cc(C)c(NC(=O)NCCCl)c(C)c1,587
7,CCCCCCCCCCCc1ccc(NC(=O)NCCCl)cc1,587

# System: HT-29
# Assay: Antiproliferative activity against human HT29 cells
# Assay type: functional
row,Structure (SMILES),GI50 [µM]
1,CCC(C)c1ccc(NC(=O)N[C@@H](CC)CCl)cc1 (stereo partly specified),109
2,CCC(C)c1ccc(NC(=O)N[C@@H](C)CCl)cc1 (stereo partly specified),54
3,C[C@H](CCl)NC(=O)Nc1ccc2c(c1)-c1ccccc1C2,6.6
4,CCCCc1ccc(NC(=O)NCCCl)cc1,22
5,Cc1cc(C)cc(NC(=O)NCCCl)c1,20
6,O=C(NCCCl)Nc1ccc2c(c1)CCC2,10
7,C[C@@H](CCl)NC(=O)Nc1ccc2ccccc2c1,181
8,O=C(NCCCl)Nc1cccc2c1CCCC2,400
9,CCC(C)c1ccc(NC(=O)N[C@H](C)CCl)cc1 (stereo partly specified),8.9
10,CCC(C)c1ccc(NC(=O)NCCCl)cc1 (stereo unspecified),3.6
11,CC(C)(C)Cc1ccc(NC(=O)NCCCl)cc1,36
12,CC[C@H](CCl)NC(=O)Nc1ccc(C(C)C)cc1,30
13,O=C(NCCCl)Nc1ccc2c(c1)-c1ccccc1C2,13
14,CCC(C)c1ccc(NC(=O)N[C@H](CC)CCl)cc1 (stereo partly specified),56
15,CCNC(=O)Nc1ccc(C(C)CC)cc1 (stereo unspecified),132
16,CNC(=O)Nc1ccc(C(C)(C)C)cc1,400
17,CC[C@@H](CCl)NC(=O)Nc1ccc(C(C)(C)C)cc1,109
18,CCc1ccc(NC(=O)NCCCl)cc1,6.4
19,O=C(NCCCl)Nc1ccc2ccccc2c1,5.5
20,C[C@H](CCl)NC(=O)Nc1ccc2c(c1)CCC2,6.4
21,O=C(NCCCl)Nc1ccc(Br)cc1,9
22,C[C@@H](CCl)NC(=O)Nc1ccc2c(c1)CCC2,100
23,C[C@@H](CCl)NC(=O)Nc1ccc(I)cc1,49
24,C[C@H](CCl)NC(=O)Nc1ccc(C(C)(C)C)cc1,8.9
25,CC(C)c1ccc(NC(=O)N[C@H](C)CCl)cc1,1.1
26,CCCNC(=O)Nc1ccc(C(C)C)cc1,76
27,Cc1ccc(NC(=O)NCCCl)cc1,23

row,Structure (SMILES),GI50 [µM]
1,CCNC(=O)Nc1ccc(C(C)(C)C)cc1,83
2,C[C@@H](CCl)NC(=O)Nc1ccc(C(C)(C)C)cc1,55
3,CC[C@H](CCl)NC(=O)Nc1ccc(C(C)(C)C)cc1,56
4,CC(C)CCc1ccc(NC(=O)NCCCl)cc1,33
5,C[C@H](CCl)NC(=O)Nc1ccc2ccccc2c1,4.9
6,CCC(C)c1ccc(NC(=O)NC)cc1 (stereo unspecified),400
7,Cc1ccc(NC(=O)NCCCl)cc1C,5.4
8,CCCCCCc1ccc(NC(=O)NCCCl)cc1,12
9,O=C(NCCCl)Nc1ccc2[nH]ncc2c1,48
10,O=C(NCCCl)Nc1ccc(Cl)cc1,14
11,CCCc1ccc(NC(=O)NCCCl)cc1,23
12,CCCNC(=O)Nc1ccc(C(C)CC)cc1 (stereo unspecified),133
13,C[C@H](CCl)NC(=O)Nc1ccc(I)cc1,0.85
14,CCCNC(=O)Nc1ccc(C(C)(C)C)cc1,35
15,CC[C@H](CCl)NC(=O)Nc1ccc(I)cc1,22
16,CCCCCc1ccc(NC(=O)NCCCl)cc1,12
17,CC(C)c1ccc(NC(=O)N[C@@H](C)CCl)cc1,69
18,CC(C)c1ccc(NC(=O)NCCCl)cc1,5
19,CC[C@@H](CCl)NC(=O)Nc1ccc(I)cc1,51
20,CC(C)Cc1ccc(NC(=O)NCCCl)cc1,21
21,CCNC(=O)Nc1ccc(C(C)C)cc1,400
22,O=C(NCCCl)Nc1ccc(I)cc1,3.9
23,CC(C)(C)c1ccc(NC(=O)NCCCCl)cc1,21
24,CNC(=O)Nc1ccc(C(C)C)cc1,400
25,CC(C)(C)c1ccc(NC(=O)NCCCl)cc1,9.1
26,CC[C@@H](CCl)NC(=O)Nc1ccc(C(C)C)cc1,54
27,C[C@@H](CCl)NC(=O)Nc1ccc2c(c1)-c1ccccc1C2,28
